How the values were obtained:
[1] = molecular target: T1, alpha2B adrenergic receptors (Homo sapiens, UniProt P18089); test: RSAT assay (Receptor Selection and Amplification Technology), alpha2B; assay type: cell-based; details: NIH-3T3 cells, ratio of maximal effect to that of standard full agonist brimonidine, NA = not active below 10 micromolar
T1 construct: expressed in transfected cells; host or cells: NIH-3T3 cells
T1 sequence (P18089 1-450): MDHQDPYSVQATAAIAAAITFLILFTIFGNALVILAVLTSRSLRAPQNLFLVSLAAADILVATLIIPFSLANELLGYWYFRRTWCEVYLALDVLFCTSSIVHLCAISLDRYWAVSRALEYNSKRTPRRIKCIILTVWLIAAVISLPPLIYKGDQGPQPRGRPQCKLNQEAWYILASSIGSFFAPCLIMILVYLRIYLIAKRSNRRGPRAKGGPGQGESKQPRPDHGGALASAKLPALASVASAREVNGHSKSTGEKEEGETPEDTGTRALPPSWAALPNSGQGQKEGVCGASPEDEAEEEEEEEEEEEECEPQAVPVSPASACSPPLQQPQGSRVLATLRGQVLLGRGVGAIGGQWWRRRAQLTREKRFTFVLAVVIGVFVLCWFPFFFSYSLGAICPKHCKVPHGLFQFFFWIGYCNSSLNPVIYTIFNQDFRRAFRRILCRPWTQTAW
Text: The imidazole-2-thione compounds of the invention are agonists of alpha2 adrenergic receptors. Many compounds of the invention are specific or selective agonists of alpha2B and/or to a lesser extent alpha2C adrenergic receptors, in preference over alpha2A adrenergic receptors. […] 76, pp. 308-311 (incorporated herein by reference) and is also described below. Another reference pertinent to this assay is Conklin et al. (1993) Nature 363:274-6, Receptor Selection and Amplification Technology (RSAT) assay, also incorporated herein by reference.
The RSAT assay measures a receptor-mediated loss of contact inhibition that results in selective proliferation of receptor-containing cells in a mixed population of confluent cells. The increase in cell number is assessed with an appropriate transfected marker gene such as β-galactosidase, the activity of which can be easily measured in a 96-well format. Receptors that activate the G protein, Gq, elicit this response. Alpha2 receptors, which normally couple to Gi, activate the RSAT response when coexpressed with a hybrid Gq protein that has a Gi receptor recognition domain, called Gq/i5.
NIH-3T3 cells are plated at a density of 2×10^6 cells in 15 cm dishes and maintained in Dulbecco's modified Eagle's medium supplemented with 10% calf serum. One day later, cells are cotransfected by calcium phosphate precipitation with mammalian expression plasmids encoding p-SV-β-galactosidase (5-10 μg), receptor (1-2 μg) and G protein (1-2 μg). 40 μg salmon sperm DNA may also be included in the transfection mixture. Fresh media is added on the following day and 1-2 days later, cells are harvested and frozen in 50 assay aliquots. Cells are thawed and 100 μl added to 100 μl aliquots of various concentrations of drugs in triplicate in 96-well dishes. Incubations continue 72-96 hr at 37° C. After washing with phosphate-buffered saline, β-galactosidase enzyme activity is determined by adding 200 μl of the chromogenic substrate (consisting of 3.5 mM o-nitrophenyl-β-D-galactopyranoside and 0.5% nonidet P-40 in phosphate buffered saline), incubating overnight at 30° C. and measuring optical density at 420 nm. The absorbance is a measure of enzyme activity, which depends on cell number and reflects a receptor-mediated cell proliferation. The efficacy or intrinsic activity is calculated as a ratio of the maximal effect of the drug to the maximal effect of a standard full agonist for each receptor subtype. Brimonidine, also called UK14304, the chemical structure of which is shown below, is used as the standard agonist for the alpha2A, alpha2B and alpha2C receptors.
The results of the RSAT assay with several exemplary compounds of the invention are disclosed in Table 1 above together with the chemical formulas of these examplary compounds. NA stands for “not active” at cohcentrations less than 10 micromolar.

[2] = tested on: Sprague-Dawley rats; test: Sedative activity (exploratory behavior after i.p. injection); assay type: in vivo; details: intraperitoneally, up to a dose of 1 mg/kg
Procedure: To test sedation, six male Sprague-Dawley rats are given up to 3 mg/kg of the test compound in a saline or DMSO vehicle by intraperitoneal injection (i.p.). Sedation is graded 30 minutes following administration of the drug by monitoring locomotor skills as follows.
The Sprague-Dawley rats are weighed and 1 ml/kg body weight of an appropriate concentration (ie. 3 mg/ml for a final dose of 3 mg/kg) drug solution is injected intraperitoneally. Typically the test compound is formulated in approximately 10 to 50% DMSO. The results are compared to controls that are injected with 1 ml/kg saline or 10 to 50% DMSO. Rat activity is then determined 30 minutes after injection of the drug solution. Rats are placed in a dark covered chamber and a digicom analyzer (Omnitech Electronic) quantitates their exploratory behavior for a five-minute period. The machine records each time the rat interrupts an array of 32 photoelectric beams in the X and Y orientation.
Effects on Cardiovascular System

[3] = tested on: Chung Model of Neuropathic Pain; test: Chung model of neuropathic pain (tactile allodynia, von Frey hairs); assay type: in vivo, rats; details: 30 min following drug administration
Text: A model in accordance with Kim and Chung 1992, Pain […], pp 355-363 (Chung model), for chronic pain (in particular peripheral neuropathy) involves the surgical ligation of the L5 (and optionally the L6) spinal nerves on one side in experimental animals. Rats recovering from the surgery gain weight and display a level of general activity similar to that of normal rats. However, these rats develop abnormalities of the foot, wherein the hindpaw is moderately everted and the toes are held together. More importantly, the hindpaw on the side affected by the surgery appears to become sensitive to pain from low-threshold mechanical stimuli, such as that producing a faint sensation of touch in a human, within about 1 week following surgery. This sensitivity to normally non-painful touch is called “tactile allodynia” and lasts for at least two months. The response includes lifting the affected hindpaw to escape from the stimulus, licking the paw and holding it in the air for many seconds. None of these responses is normally seen in the control group.
Rats are anesthetized before surgery. The surgical site is shaved and prepared either with betadine or Novacaine. Incision is made from the thoracic vertebra XIII down toward the sacrum. Muscle tissue is separated from the spinal vertebra (left side) at the L4-S2 levels. The L6 vertebra is located and the transverse process is carefully removed with a small rongeur to expose the L4-L6 spinal nerves. The L5 and L6 spinal nerves are isolated and tightly ligated with 6-0 silk thread. The same procedure is done on the right side as a control, except no ligation of the spinal nerves is performed.
A complete hemostasis is confirmed, then the wounds are sutured. A small amount of antibiotic ointment is applied to the incised area, and the rat is transferred to the recovery plastic cage under a regulated heat-temperature lamp. On the day of the experiment, at least seven days after the surgery, typically six rats per test group are administered the test drugs by intraperitoneal (i.p.) injection or oral gavage. […], the compounds are formulated in d H2O and given in a volume of 1 ml/kg body weight using an 18-gauge, 3 inch gavage needle that is slowly inserted through the esophagus into the stomach.
Tactile allodynia is measured prior to and 30 minutes after drug administration using von Frey hairs that are a series of fine hairs with incremental differences in stiffness. Rats are placed in a plastic cage with a wire mesh bottom and allowed to acclimate for approximately 30 minutes. The von Frey hairs are applied perpendicularly through the mesh to the mid-plantar region of the rats' hindpaw with sufficient force to cause slight buckling and held for 6-8 seconds. The applied force has been calculated to range from 0.41 to 15.1 grams. If the paw is sharply withdrawn, it is considered a positive response. A normal animal will not respond to stimuli in this range, but a surgically ligated paw will be withdrawn in response to a 1-2 gram hair. The 50% paw withdrawal threshold is determined using the method of Dixon, W. J., Ann. Rev. Pharmacol. Toxicol. 20:441-462 (1980) hereby incorporated by reference. The post-drug threshold is compared to the pre-drug threshold and the percent reversal of tactile sensitivity is calculated based on a normal threshold of 15.1 grams.
All measurements 30 min following drug administration. p value<0.001 compared to pretreatment values.

SMILES | Intrinsic Activity Alpha 2B [1] | sedative effect [2] | % Pain Reversal ± SEM ([3]; 10 μg/kg i.p.) | % Pain Reversal ± SEM ([3]; 30 μg/kg i.p.) | % Pain Reversal ± SEM ([3]; 30 μg/kg p.o.) | % Pain Reversal ± SEM ([3]; 300 μg/kg i.p.) | % Pain Reversal ± SEM ([3]; 3 μg/kg p.o.) | % Pain Reversal ± SEM ([3]; 10 μg/kg p.o.) | % Pain Reversal ± SEM ([3]; 100 μg/kg p.o.)
CC(c1c[nH]c(=S)[nH]1)c1cccc2ncccc12 (racemic) [Compound 7, 4-(1-quinolin-5-yl-ethyl)-1,3-dihydro-imidazole-2-thione] | 0.90 | no sedative effect | 2.9 ± 0.7% | 65.8 ± 6.1% | 77.0 ± 5.1% | 77.7 ± 7.2% | – | – | –
CC(c1c[nH]c(=S)[nH]1)c1cccc2ncccc12 (single isomer, unassigned; (-)) [Compound 15, (−)-4-(1-quinolin-5-yl-ethyl)-1,3-dihydro-imidazole-2-thione] | 0.89 | no sedative effect | – | – | 82.0 ± 6.2% | – | 58.0 ± 5.3% | 78.0 ± 4.6% | 81.0 ± 8.1%
